According to PubChem BioAssay (NCI):
Where “and” joins values, the source holds several entries; their conditions need not be identical. Identical values can stand only once.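 Interpolation was linear, between the two tested concentrations surrounding the appropriate level; five concentrations were tested over 48 hours in 96-well plates. GI50 is the concentration that inhibits growth by half. TGI denotes the concentration required for complete inhibition of growth.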

Legend:
Assay in all cases: NCI-60 cell line screen, 48 h
[1] = tested on: IGROV1 ovarian
[2] = tested on: KM12 colon
[3] = tested on: EKVX NSCLC
[4] = tested on: PC-3 prostate
[5] = tested on: K-562 leukemia
[6] = tested on: NCI/ADR-RES ovarian
[7] = tested on: HCT-116 colon
[8] = tested on: SF-295 CNS
[9] = tested on: COLO 205 colon
[10] = tested on: MALME-3M melanoma

COc1cc(C2NC(=O)C(C#N)=C(Nc3cccc(C)c3)S2)ccc1O (stereo not drawn)
GI50 [1]: > 100 µM | TGI [1]: > 100 µM | GI50 [2]: > 100 µM | TGI [2]: > 100 µM | GI50 [3]: > 100 µM | TGI [3]: > 100 µM | GI50 [4]: > 100 µM | TGI [4]: > 100 µM | GI50 [5]: > 100 µM | TGI [5]: > 100 µM | GI50 [6]: > 100 µM | TGI [6]: > 100 µM | GI50 [7]: > 100 µM | TGI [7]: > 100 µM | GI50 [8]: > 100 µM | TGI [8]: > 100 µM | GI50 [9]: > 100 µM | TGI [9]: > 100 µM | GI50 [10]: > 100 µM | TGI [10]: > 100 µM

COc1ccc(/C=C/c2ccnc3ccccc23)cc1OC
TGI [1]: 28.9 µM | TGI [2]: 30.8 µM | TGI [3]: 27.9 µM | TGI [4]: 36.4 µM | TGI [5]: 22.1 µM | TGI [6]: 40 µM | TGI [7]: 25.1 µM | TGI [8]: 46.8 µM | TGI [9]: 27.1 µM | TGI [10]: 30.7 µM

CNc1cc(-c2cccc(OC(F)(F)F)c2)nc2ccc(N3CCCC3)cc12
GI50 [1]: 1.57 µM and 1.74 µM and 1.72 µM | TGI [1]: 3.08 µM and 3.39 µM and 3.25 µM | GI50 [2]: 1.81 µM and 1.76 µM and 1.89 µM | TGI [2]: 3.4 µM and 3.35 µM and 3.51 µM | GI50 [3]: 1.64 µM and 1.57 µM and 1.74 µM | TGI [3]: 3.43 µM and 3.06 µM and 3.42 µM | GI50 [4]: 1.46 µM and 1.61 µM and 1.5 µM | TGI [4]: 2.95 µM and 3.1 µM and 3.01 µM | GI50 [5]: 0.884 µM | TGI [5]: 3.61 µM | GI50 [6]: 1.78 µM and 1.89 µM and 1.6 µM | TGI [6]: 3.87 µM and 3.79 µM and 3.19 µM | GI50 [7]: 1.3 µM and 1.79 µM and 1.21 µM | TGI [7]: 2.58 µM and 3.32 µM and 2.52 µM | GI50 [8]: 1.61 µM and 1.75 µM and 1.68 µM | TGI [8]: 2.98 µM and 3.2 µM and 3.09 µM | GI50 [9]: 1.84 µM and 1.81 µM | TGI [9]: 3.58 µM and 3.29 µM | GI50 [10]: 1.78 µM and 1.92 µM and 1.7 µM | TGI [10]: 3.24 µM and 3.4 µM and 3.16 µM

Fc1ccc(Nc2nc(Nc3ccc(-c4nc5ccccc5[nH]4)cc3)c3cn[nH]c3n2)cc1
GI50 [1]: 1.75 µM | TGI [1]: 3.84 µM | GI50 [2]: 1.64 µM | TGI [2]: 3.48 µM | GI50 [3]: 2.5 µM | TGI [3]: 8.28 µM | GI50 [4]: 2.02 µM | TGI [4]: 4.53 µM | GI50 [5]: 3.04 µM | TGI [5]: 7.41 µM | GI50 [6]: 2.11 µM | TGI [6]: 5.04 µM | GI50 [7]: 1.75 µM | TGI [7]: 3.58 µM | GI50 [8]: 1.87 µM | TGI [8]: 4.08 µM | GI50 [9]: 1.75 µM | TGI [9]: 3.67 µM | GI50 [10]: 1.72 µM | TGI [10]: 3.51 µM

COc1ccc(C(O)c2ccccn2)cc1 (stereo not drawn)
TGI [1]: > 100 µM | TGI [2]: > 100 µM | TGI [3]: > 100 µM | TGI [4]: > 100 µM | TGI [5]: > 100 µM | TGI [6]: > 100 µM | TGI [7]: > 100 µM | TGI [8]: > 100 µM | TGI [9]: > 100 µM | TGI [10]: > 100 µM

CSc1ccc(C(=O)/C=C/c2ccc(Cl)cc2Cl)cc1
GI50 [1]: 15.6 µM | TGI [1]: 31.9 µM | GI50 [2]: 22.2 µM | TGI [2]: 51.8 µM | GI50 [3]: 20.2 µM | TGI [3]: 78.8 µM | GI50 [4]: 39.6 µM | TGI [4]: > 100 µM | GI50 [5]: 6.48 µM | TGI [5]: 49.5 µM | GI50 [6]: 30 µM | TGI [6]: 94.7 µM | GI50 [7]: 3.91 µM | TGI [7]: 14.9 µM | GI50 [8]: 29.5 µM | TGI [8]: > 100 µM | GI50 [10]: 29.1 µM | TGI [10]: > 100 µM

COc1ccc(-c2[nH]ncc2Nc2cc(OC)c(OC)c(OC)c2)cc1
GI50 [1]: 2.51 µM | TGI [1]: > 100 µM | GI50 [2]: 0.63 µM | TGI [2]: 22.7 µM | GI50 [3]: 1.93 µM | TGI [3]: > 49.4 µM | GI50 [4]: 3.31 µM | TGI [4]: > 100 µM | GI50 [5]: 0.42 µM | TGI [5]: > 52.3 µM | GI50 [6]: 1.86 µM | TGI [6]: 25 µM | GI50 [7]: 1.04 µM | TGI [7]: > 43.2 µM | GI50 [8]: 1.31 µM | TGI [8]: > 21.1 µM | GI50 [9]: 1.61 µM | TGI [9]: 6.32 µM | GI50 [10]: 2.04 µM | TGI [10]: > 26.1 µM
